Test results from patent publication US7109193B2, “Tricyclic diazepines tocolytic oxytocin receptor antagonists” (Wyeth, priority 2001, dated 2006).

Target: T1, human oxytocin receptor (Homo sapiens, UniProt P30559)
T1 construct: host or cells: CHO cells (pcDNA3.1 vector)
T1 sequence (P30559 1-389): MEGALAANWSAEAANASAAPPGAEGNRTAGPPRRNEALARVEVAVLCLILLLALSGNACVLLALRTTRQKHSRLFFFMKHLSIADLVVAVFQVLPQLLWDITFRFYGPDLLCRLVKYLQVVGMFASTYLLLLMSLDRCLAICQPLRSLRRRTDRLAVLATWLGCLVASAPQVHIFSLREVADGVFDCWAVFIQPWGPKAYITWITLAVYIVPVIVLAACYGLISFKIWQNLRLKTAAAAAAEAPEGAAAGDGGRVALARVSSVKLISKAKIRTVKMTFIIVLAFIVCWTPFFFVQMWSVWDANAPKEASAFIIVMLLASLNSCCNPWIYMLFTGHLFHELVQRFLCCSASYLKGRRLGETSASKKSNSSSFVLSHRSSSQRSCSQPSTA
Assay: Oxytocin binding in Chinese Hamster Ovary cell membranes expressing human oxytocin receptors
Conditions: 100 nM, CHO cell membranes, [3H]oxytocin, values without parentheses, read-out: OT % inhibition @ 100% nM

inhibition at 0.1 µM: 95%
SMILES: Cc1ccccc1-c1ccc(C(=O)N2Cc3ccc(C(=O)N4CCN(C)CC4)n3Cc3ccccc32)cc1C [Example 50, {10-[(2,2′-Dimethyl[1,1′-biphenyl]-4-yl)carbonyl]-10,11-dihydro-5H-pyrrolo[2,1-c][1,4]benzodiazepin-3-yl}(4-methyl-1-piperazinyl)methanone]
